# Assay results: patent publication US12011506B2, “Combination and uses and treatments thereof” (priority 2017, dated 2024)
# What was measured:
# [1] = Food effect pharmacokinetics: high-fat or moderate-fat meal versus fasted (Tables 20, 21)
# Text: Cmax, AUC0-t, AUC0-∞ and AUClast are standard pharmacokinetic parameters that can be estimated manually or by using modelling software well known in the art, such as the Pharsight WinNonlin package using a non-compartmental model. The general basis for calculation of these quantities is well-known (e.g. see Rowland & Tozer (2010) Clinical Pharmacokinetics and Pharmacodynamics: Concepts and Applications ISBN 978-0781750097, or Jambhekar & Breen (2012) Basic Pharmacokinetics ISBN 978-0853699804). Typically the parameters will be assessed as the average (e.g. geometric or arithmetic mean) from within a group of at least 12 (and normally between 24 and 36) healthy human adults. Parameters should be measured in accordance with standards and practices which would be acceptable to a pharmaceutical regulatory agency such as FDA, EMA, MHLW, or WHO. The values may be based on measurements taken at appropriate intervals following the time of tablet ingestion, such as every hour, or at increasingly sparse sampling intervals, such as 1, 3, 5, 7, 9, 11, 13, 15, 20, and 24 hours after ingestion.
# [2] = Rilpivirine oral pharmacokinetics; type: in vivo, human
# [3] = Excretion after single dose oral administration of [14C] rilpivirine; type: in vivo, human; conditions: single dose oral [14C] rilpivirine
# Text: In feces, unchanged rilpivirine accounted for on average 25% of the administered dose. […] The pharmacokinetic properties of rilpivirine have been evaluated in adult healthy subjects and in adult antiretroviral treatment-naïve HIV-1-infected subjects. Exposure to rilpivirine was generally lower in HIV-1 infected subjects than in healthy subjects.
# cytochrome P450 CYP3A = assay: Rilpivirine in vitro oxidative metabolism; type: in vitro ADME; conditions: in vitro experiments
# [4] = Dolutegravir oral pharmacokinetics (absorption, steady state, population pharmacokinetic analyses); type: in vivo, human
# [5] = Excretion after a single oral dose of [14C] dolutegravir; type: in vivo, human; conditions: single oral dose of [14C] dolutegravir
# CYP3A4 = CYP3A4 (Homo sapiens, UniProt P08684); conditions: cited from earlier work
# [6] = Established and other potentially significant drug interactions with JULUCA (effect on concentration); type: in vivo, human; conditions: concomitant drug with JULUCA; based on drug interaction trials or predicted interactions
# Text: These recommendations are based on either drug interaction trials of individual components or predicted interactions due to the expected magnitude of interaction and potential for serious adverse events or loss of efficacy.
# [7] = human, in vivo
# [8] = human, in vivo; remark: listed apart in the source
# [9] = high-fat meal compared with fasted conditions
# [10] = moderate-fat meal compared with fasted conditions
# CYP3A4, sequence (P08684 whole entry): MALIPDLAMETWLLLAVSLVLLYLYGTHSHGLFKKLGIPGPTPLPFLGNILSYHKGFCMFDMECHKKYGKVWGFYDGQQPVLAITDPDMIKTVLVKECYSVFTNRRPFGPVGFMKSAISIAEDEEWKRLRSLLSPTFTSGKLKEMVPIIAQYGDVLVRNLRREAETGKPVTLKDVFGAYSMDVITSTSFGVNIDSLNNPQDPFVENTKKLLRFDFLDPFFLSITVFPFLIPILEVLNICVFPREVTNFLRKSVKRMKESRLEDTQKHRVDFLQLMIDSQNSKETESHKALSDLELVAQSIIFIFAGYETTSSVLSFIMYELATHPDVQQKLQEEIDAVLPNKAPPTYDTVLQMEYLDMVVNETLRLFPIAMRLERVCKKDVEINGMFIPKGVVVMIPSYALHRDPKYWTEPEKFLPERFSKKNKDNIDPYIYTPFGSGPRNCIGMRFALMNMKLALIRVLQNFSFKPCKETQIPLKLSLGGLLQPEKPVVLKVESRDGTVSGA
smiles,measurement,setting,value
"Cc1cc(/C=C/C#N)cc(C)c1Nc1ccnc(Nc2ccc(C#N)cc2)n1 [Rilpivirine, 4-[[4-[[4-[(E)-2-cyanoethenyl]-2,6-dimethylphenyl]amino]-2-pyrimidinyl]amino]benzonitrile]",Increase of AUC(0-∞),[1]; [9],72%
same,Increase of Cmax,[1]; [9],117%
same,Increase of AUC(0-∞),[1]; [10],57%
same,Increase of Cmax,[1]; [10],89%
same,half-life,"[2]; human, in vivo, oral, read-out: Terminal elimination half-life (converted)",~50 h
same,Exposures lower than when taken with a meal,[2]; taken with only a protein-rich nutritional drink,50%
same,Unchanged rilpivirine in urine,[3],< 1 % of dose
same,Radioactivity retrieved in feces,[3]; on average,85%
same,Radioactivity retrieved in urine,[3]; on average,6.1%
same,Unchanged rilpivirine in feces,[3]; on average,25 % of the administered dose
same,Metabolic pathway,cytochrome P450 CYP3A,primarily metabolized by CYP3A
same,Metabolic pathway,cytochrome P450 CYP3A; listed as rilpivirine,primarily undergoes oxidative metabolism mediated by the cytochrome P450 CYP3A system
"C[C@@H]1CCO[C@H]2Cn3cc(C(=O)NCc4ccc(F)cc4F)c(=O)c(O)c3C(=O)N12 [Dolutegravir, (4R,12aS)—N-[(2,4-difluorophenyl)methyl]-7-hydroxy-4-methyl-6,8-dioxo-3,4,12,12a-tetrahydro-2H-pyrido[5,6]pyrazino[2,6-b][1,3]oxazine-9-carboxamide]",Increase of AUC(0-∞),"[1]; human, in vivo",approximately 87%
same,Increase of Cmax,"[1]; moderate- and high-fat meals each, compared with fasted conditions",approximately 75%
same,half-life,"[4]; human, plasma, oral, population pharmacokinetic analyses, read-out: Terminal half-life (converted)",~14 h
same,Time to pharmacokinetic steady state,[4]; once-daily dosing,≤ 5 days
same,Apparent clearance (CL/F),[4]; population pharmacokinetic analyses,1.0 L per hour
same,Renal elimination of unchanged drug,[5],less than 1 % of the dose
same,Total oral dose excreted in the urine,[5],Thirty-one
same,Total oral dose excreted unchanged in the feces,[5],53%
same,Extent as substrate of CYP3A4,CYP3A4,about 15%
COc1ccc2[nH]c([S+]([O-])Cc3ncc(C)c(OC)c3C)nc2c1 (stereo not drawn) [Omeprazole],Effect on Concentration of Rilpivirine,[6],↓Rilpivirine
same,"AUC of coadministered drug, geometric mean ratio with/without EDURANT",[7],0.86
same,"Cmax of coadministered drug, geometric mean ratio with/without EDURANT",[7],0.86
same,"Rilpivirine AUC, geometric mean ratio with/without coadministered drug",[8],0.60
same,"Rilpivirine Cmax, geometric mean ratio with/without coadministered drug",[8],0.60
same,"Rilpivirine Cmin, geometric mean ratio with/without coadministered drug",[8],0.67
